This is an account of results in DBAASP.

In brackets after ≈: the same amount, converted by molar mass. Bounds are passed on as bounds.

Among the test systems are Streptococcus mutans; Escherichia coli B; Staphylococcus aureus; Pseudomonas aeruginosa; Bacillus subtilis.
Holding throughout (experiment): ≥ marks a high value that may be exact or a test limit, other limits are often not marked, values filed in µg/mL are converted to µM
Test [1] relates to Pseudomonas aeruginosa Ps4.
For test [2], the system named is Candida albicans F7-39/IDE99.
Test [3] has as its system Candida albicans ATCC 90028.
The test system of test [4] is Escherichia coli ATCC 8739.
Test [5] deals with Staphylococcus aureus ATCC 6538.
The test system of test [6] is Staphylococcus aureus ATCC 43300.
In test [7] the test system is Staphylococcus aureus ATCC 25923.

The term MIC denotes the lowest concentration found to suppress growth. A low value points to a more susceptible organism. `CC(C)C[C@H](NC(=O)[C@H](C)NC(=O)[C@H](Cc1cnc[nH]1)NC(=O)[C@H](CC(C)C)NC(=O)[C@H](CC(C)C)NC(=O)[C@H](Cc1cnc[nH]1)NC(=O)[C@@H](NC(=O)[C@H](C)N)[C@@H](C)O)C(=O)N[C@@H](CCC(N)=O)C(=O)N[C@@H](CCCN=C(N)N)C(=O)N[C@@H](Cc1ccccc1)C(N)=O` [ATHLLHALQRF] gave a minimal inhibitory concentration (MIC) in the test with Streptococcus mutans not below 191 µM.
With `CC[C@H](C)[C@H](NC(=O)[C@H](CCCN=C(N)N)NC(=O)[C@@H](NC(=O)[C@H](CC(N)=O)NC(=O)[C@H](CCCN=C(N)N)NC(=O)[C@H](CCC(N)=O)NC(=O)[C@H](Cc1c[nH]c2ccccc12)NC(=O)[C@H](CCC(N)=O)NC(=O)[C@@H](N)Cc1ccccc1)[C@@H](C)CC)C(=O)N[C@@H](CCCN=C(N)N)C(=O)N[C@@H](CCCN=C(N)N)C(N)=O` [FQWQRNIRIRR], the MIC in test [1] is not below 159 µM.
`CC[C@H](C)[C@H](NC(=O)[C@H](CC(N)=O)NC(=O)[C@H](CCCN=C(N)N)NC(=O)[C@H](CCC(N)=O)NC(=O)[C@H](Cc1c[nH]c2ccccc12)NC(=O)[C@@H](N)Cc1ccccc1)C(=O)N[C@@H](CCCN=C(N)N)C(=O)N[C@@H](CCCCN)C(=O)N[C@H](C(=O)N[C@@H](CCCN=C(N)N)C(=O)N[C@@H](CCCN=C(N)N)C(=O)N[C@@H](CCCN=C(N)N)C(N)=O)C(C)C` [FWQRNIRKVRRR] displayed an MIC in test [1] not below 146 µM.
In test [1], `CC[C@H](C)[C@H](NC(=O)[C@H](CC(N)=O)NC(=O)[C@H](CCCN=C(N)N)NC(=O)[C@H](CCC(N)=O)NC(=O)[C@H](Cc1c[nH]c2ccccc12)NC(=O)[C@@H](N)Cc1ccccc1)C(=O)N[C@@H](CCCN=C(N)N)C(=O)N[C@@H](CCCCN)C(=O)N[C@H](C(=O)N[C@@H](CCCN=C(N)N)C(=O)N[C@@H](CCCN=C(N)N)C(N)=O)C(C)C` [FWQRNIRKVRR] came in with an MIC not below 160 µM.
Same read-out and setting: in the case of `CC[C@H](C)[C@H](NC(=O)[C@H](CC(N)=O)NC(=O)[C@H](CCCN=C(N)N)NC(=O)[C@H](CCC(N)=O)NC(=O)[C@H](Cc1c[nH]c2ccccc12)NC(=O)[C@@H](N)Cc1ccccc1)C(=O)N[C@@H](Cc1ccc(O)cc1)C(=O)N[C@@H](CCCCN)C(=O)N[C@H](C(=O)N[C@@H](CCCN=C(N)N)C(N)=O)C(C)C` [FWQRNIYKVR] it was not below 177 µM.
In the case of `CC[C@H](C)[C@H](NC(=O)[C@H](C)NC(=O)[C@H](C)NC(=O)[C@H](CC(C)C)NC(=O)[C@@H](NC(=O)[C@H](CCCCN)NC(=O)[C@H](CCCNC(=N)N)NC(=O)[C@@H]1CCCN1C(=O)[C@H](CC(C)C)NC(=O)CN)[C@@H](C)CC)C(=O)N[C@@H](C)C(=O)N[C@@H](CCCCN)C(=O)N[C@@H](CCCCN)C(=O)N[C@@H](CCCCN)C(=O)NCC(=O)N[C@@H](CCCCN)C(=O)N[C@@H](C)C(=O)N[C@@H](CCCCN)C(=O)NCC(=O)N1CCC[C@H]1C(=O)N[C@@H](CC(C)C)C(=O)N[C@@H](CCCCN)C(=O)N[C@@H](CC(C)C)C(=O)N[C@H](C(=O)N[C@@H](C)C(=O)N[C@@H](CCCCN)C(=O)N[C@@H](C)C(=O)O)C(C)C` [GLPRKILAAIAKKKGKAKGPLKLVAKA], the MIC against Escherichia coli B was not below 100 µM; in the test with Staphylococcus aureus, more than 100 µM; against Pseudomonas aeruginosa it was more than 100 µM; in [2] it was not below 100 µM; against Bacillus subtilis, 12 µM (≈ 33.2 µg/mL).
Take `CC[C@H](C)[C@@H]1NC(=O)[C@H](C)NC(=O)[C@@H](NC(=O)[C@H](CC(C)C)NC(=O)[C@@H](NC(=O)[C@H](CCCCN)NC(=O)[C@H](CCCN=C(N)N)NC(=O)[C@@H]2CCCN2C(=O)[C@H](CC(C)C)NC(=O)CN)[C@@H](C)CC)CSSC[C@@H](C(=O)N[C@@H](CCCCN)C(=O)NCC(=O)N2CCC[C@H]2C(=O)N[C@@H](CC(C)C)C(=O)N[C@@H](CCCCN)C(=O)N[C@@H](CC(C)C)C(=O)N[C@H](C(=O)N[C@H]2CSSC[C@@H](C(=O)O)NC(=O)[C@H](CCCCN)NC2=O)C(C)C)NC(=O)[C@H](CCCCN)NC(=O)CNC(=O)[C@H](CCCCN)NC(=O)[C@H](CCCCN)NC(=O)[C@H](CCCCN)NC(=O)[C@H](C)NC1=O` [GLPRKILCAIAKKKGKCKGPLKLVCKC]: the MIC against Escherichia coli B is not below 100 µM; in the test on Staphylococcus aureus, more than 100 µM; with Pseudomonas aeruginosa, more than 100 µM; in test [2], not below 100 µM; with Bacillus subtilis, 4 µM (≈ 11.6 µg/mL).
As to `CC[C@H](C)[C@H](NC(=O)[C@H](CCCCN)NC(=O)[C@@H](NC(=O)[C@H](CO)NC(=O)[C@H](CC(=O)O)NC(=O)[C@H](Cc1c[nH]c2ccccc12)NC(=O)[C@H](CC(C)C)NC(=O)CN)[C@@H](C)CC)C(=O)N[C@@H](C)C(=O)NCC(=O)N[C@@H](CCCCN)C(=O)N[C@@H](CCCCN)C(=O)N[C@@H](CC(C)C)C(=O)N[C@@H](Cc1ccccc1)C(=O)N[C@H](C(=O)N[C@@H](CC(N)=O)C(=O)N[C@H](C(=O)N[C@@H](CC(C)C)C(=O)N[C@@H](CC(=O)O)C(=O)N[C@@H](CCCCN)C(=O)N[C@H](C(=O)N[C@@H](CCCN=C(N)N)C(=O)N[C@H]1CSSC[C@@H](C(=O)O)NC(=O)CNC(=O)CNC(=O)[C@H](C)NC(=O)[C@H](C(C)C)NC(=O)[C@H](CCCCN)NC1=O)[C@@H](C)CC)C(C)C)C(C)C` [GLWDSIKIAGKKLFVNVLDKIRCKVAGGC], the MIC in test [3] is not below 100 µM; in test [4], 12.5 µM (≈ 39.1 µg/mL); in [5], 3.1 µM (≈ 9.71 µg/mL); in test [6] it was 12.5 µM (≈ 39.1 µg/mL).
`CC[C@H](C)[C@H](NC(=O)[C@H](CC(N)=O)NC(=O)[C@H](CCCCN)NC(=O)[C@H](CC(C)C)NC(=O)[C@H](CCC(N)=O)NC(=O)[C@H](CCC(N)=O)NC(=O)[C@@H](NC(=O)[C@H](CC(C)C)NC(=O)[C@@H](N)CCCCN)C(C)C)C(=O)N[C@@H](Cc1ccccc1)C(=O)N[C@@H](CCCN=C(N)N)C(=O)O` [KLVQQLKNIFR] displayed an MIC in the test on Streptococcus mutans not below 90.1 µM.
Still for that read-out and setting: in the case of `CC(C)C[C@H](NC(=O)[C@H](CC(C)C)NC(=O)[C@H](CCCCN)NC(=O)[C@H](CC(C)C)NC(=O)[C@H](CC(C)C)NC(=O)[C@H](CCCCN)NC(=O)[C@H](CCCCN)NC(=O)[C@H](CC(C)C)NC(=O)[C@H](CC(C)C)NC(=O)[C@H](CCCCN)NC(=O)[C@@H](N)CC(C)C)C(=O)N[C@@H](CCCCN)C(=O)N[C@@H](CCCCN)C(=O)N[C@@H](Cc1ccccc1)C(N)=O` [LKLLKKLLKLLKKF] it was 4.63 µM (≈ 8 µg/mL).
As to `CSCC[C@H](N)C(=O)N[C@@H](C)C(=O)N[C@@H](CCCN=C(N)N)C(=O)N[C@@H](CC(N)=O)C(=O)N[C@@H](CCCCN)C(=O)N1CCC[C@H]1C(=O)N[C@@H](CC(C)C)C(=O)NCC(=O)N[C@@H](CCCCN)C(=O)N[C@@H](CCCCN)C(=O)N[C@@H](CC(C)C)C(=O)N[C@@H](CCCN=C(N)N)C(=O)N[C@@H](CC(C)C)C(=O)N[C@@H](C)C(=O)N[C@@H](C)C(=O)N[C@@H](C)C(=O)N[C@@H](Cc1ccccc1)C(=O)N[C@@H](CCCCN)C(=O)O` [MARNKPLGKKLRLAAAFK], the results for the minimum inhibitory concentration (MIC) in test [4] and in [7] were not below 127 µM and more than 127 µM, respectively.
Regarding `CSCC[C@H](N)C(=O)N[C@@H](CCCCN)C(=O)N[C@@H](CCCCN)C(=O)N[C@@H](CC(C)C)C(=O)N[C@@H](Cc1ccccc1)C(=O)N[C@@H](C)C(=O)N[C@@H](C)C(=O)N[C@@H](CC(C)C)C(=O)N[C@@H](C)C(=O)N[C@@H](CC(C)C)C(=O)N[C@@H](C)C(=O)N[C@@H](C)C(=O)N[C@H](C(=O)N[C@H](C(=O)N[C@@H](C)C(=O)N1CCC[C@H]1C(=O)N[C@H](C(=O)N[C@@H](Cc1c[nH]c2ccccc12)C(=O)O)C(C)C)C(C)C)C(C)C` [MKKLFAALALAAVVAPVW], the minimal inhibitory concentration (MIC) is not below 135 µM in [4] and more than 135 µM in test [7].
The matching figures for `CC(C)C[C@H](NC(=O)[C@H](CCCCN)NC(=O)[C@H](CCCCN)NC(=O)[C@H](CCCN=C(N)N)NC(=O)[C@H](CCCN=C(N)N)NC(=O)[C@H](CO)NC(=O)[C@H](CCC(N)=O)NC(=O)[C@H](Cc1ccc(O)cc1)NC(=O)[C@H](Cc1ccccc1)NC(=O)[C@H](CCC(N)=O)NC(=O)[C@H](CO)NC(=O)[C@H](CCC(=O)O)NC(=O)[C@H](CCCN=C(N)N)NC(=O)[C@@H](N)CC(N)=O)C(=O)N[C@@H](CO)C(=O)N[C@@H](CO)C(=O)N[C@@H](CCC(N)=O)C(=O)N[C@H](C(=O)O)C(C)C` [NRESQFYQSRRKKLSSQV]: not below 114 µM and more than 114 µM.
`NC(N)=NCCC[C@H](NC(=O)[C@H](Cc1c[nH]c2ccccc12)NC(=O)[C@H](Cc1c[nH]c2ccccc12)NC(=O)[C@H](Cc1ccccc1)NC(=O)[C@H](CCCN=C(N)N)NC(=O)[C@H](CCCN=C(N)N)NC(=O)[C@@H](N)CCCN=C(N)N)C(=O)O` [RRRFWWR] gave an MIC with Streptococcus mutans not below 53.8 µM.
Same read-out and setting: in the case of `NC(N)=NCCC[C@H](NC(=O)[C@H](CCCN=C(N)N)NC(=O)[C@H](Cc1c[nH]c2ccccc12)NC(=O)[C@H](Cc1c[nH]c2ccccc12)NC(=O)[C@H](CCCN=C(N)N)NC(=O)[C@@H](N)CCCN=C(N)N)C(=O)N[C@@H](Cc1c[nH]c2ccccc12)C(=O)O` [RRWWRRW] it was 13.3 µM (≈ 16 µg/mL); in that of `CC(C)C[C@H](NC(=O)[C@H](Cc1cnc[nH]1)NC(=O)[C@H](CCC(N)=O)NC(=O)[C@H](Cc1c[nH]c2ccccc12)NC(=O)[C@@H](NC(=O)[C@H](CCC(N)=O)NC(=O)[C@H](Cc1ccccc1)NC(=O)[C@H](CC(C)C)NC(=O)[C@@H](N)Cc1ccc(O)cc1)[C@@H](C)O)C(=O)N[C@@H](Cc1ccccc1)C(=O)N[C@@H](CCCN=C(N)N)C(=O)O` [YLFQTWQHLFR], not below 81.2 µM.
